# Test results taken from patent US20210023111A1, “Novel Form of Invermectin and a Process for Making it” (Hovione Scientia Limited, priority 2018, published 2021).
# Assays:
# [1] = Water solubility by HPLC, amorphous vs crystalline ivermectin; assay type: physicochemical; conditions: for peak on the HPLC chromatogram (water solubility): LOD of the HPLC method
# Excerpt: This confirms that the amorphous form is more water soluble than the known crystalline form.
# [2] = Solid-state stability of the amorphous form on storage (XRPD); assay type: physicochemical
# Excerpt: By stable we mean that the amorphous form is maintained after a certain period of time under certain environmental conditions. We have data confirming that the product maintains its amorphous form at room temperature for at least 3.5 months.
# X-ray diffraction (XRPD) analysis was made with PANalytical Empyrean equipped with copper tube and PIXel1D-Medpix3 detector (Malvern Panalytical, UK).
Substance,peak on the HPLC chromatogram (water solubility) [1],water solubility relative to the crystalline form [1],peak on the HPLC chromatogram (water solubility) ([1]; listed as amorphous form),"amorphous character after storage (XRPD, FIG. 7) ([2]; 3 months in the freezer followed by 3.5 months at room temperature (25° C.))",time for which the product maintains its amorphous form ([2]; room temperature)
"ivermectin [known crystalline form, reference compound]",no visible peak,,,,
ivermectin [amorphous ivermectin],,higher than its corresponding crystalline form,"small, but visible peak",amorphous character is maintained,at least 3.5 months
